Here are results for 26 compounds from patent EP2141164A1, “New 1,2,4-triazine derivatives and biological applications thereof” (priority 2008, dated 2010).

For the first experiment, the target named is T1, RfaE (Escherichia coli, UniProt P76658).
T1 construct: made in house; host or cells: E.coli
T1 sequence (P76658 whole entry): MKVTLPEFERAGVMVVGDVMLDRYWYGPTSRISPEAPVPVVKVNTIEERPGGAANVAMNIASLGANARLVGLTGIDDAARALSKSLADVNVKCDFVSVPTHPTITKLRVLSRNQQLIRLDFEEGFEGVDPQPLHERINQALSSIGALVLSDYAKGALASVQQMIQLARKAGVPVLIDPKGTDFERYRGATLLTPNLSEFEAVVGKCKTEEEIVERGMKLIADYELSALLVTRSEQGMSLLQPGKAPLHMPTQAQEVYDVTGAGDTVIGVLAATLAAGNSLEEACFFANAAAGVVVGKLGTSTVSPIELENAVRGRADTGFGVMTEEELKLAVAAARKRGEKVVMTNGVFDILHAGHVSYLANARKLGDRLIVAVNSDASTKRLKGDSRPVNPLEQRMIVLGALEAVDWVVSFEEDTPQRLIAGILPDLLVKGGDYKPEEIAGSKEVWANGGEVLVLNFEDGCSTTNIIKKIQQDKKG
Briefly: RfaE luminescent assay (inhibition of the enzymatic activity of RfaE). In kind it is biochemical, E.coli. The note with it: luminescent ATP detection; 3 nM RfaE, 0.2 µM β-heptose-7-phosphate, 0.2 µM ATP; 30 min pre-incubation. The text has this: RfaE is a kinase sharing similarities with the ribokinases family. It catalyses an essential step of the biosynthesis of L-ADP-Heptose, namely the phosphorylation of β-heptose-7-phosphate (H7P) into β-heptose-1,7-bisphosphate (H1,7P). RfaE assays as described in the literature are essentially based on direct HLPC detection of the substrates H7P and ATP, and of the products H1,7P and ADP, raising obvious limitations for HTS applications. The assays described below are based either on luminescent ATP detection, or on fluorescent ADP detection. They are easily amenable to miniaturized formats and fast readouts as required by HTS.
The assay buffer "AB" contains 50 mM Hepes pH=7.5, 1 mM MnCl2, 25 mM KCI, 0.012% Triton-X100 and 1 mM DTT (Dithiothreitol). The following components are added in a white polystyrene Costar plate up to a final volume of 31 µL: 3 µL DMSO, or inhibitor dissolved in DMSO and 28 µL RfaE in AB. After 30min of pre-incubation at room temperature, 29 µL of Substrates mix in AB are added in each well to a final volume of 60 µL. This reaction mixture is then composed of 3 nM RfaE (produced in house from E.coli), 0.2 µM β -heptose-7-phosphate (in house synthesis) and 0.2 µM ATP (Sigma) in assay buffer. After 40min of incubation at room temperature, 200 µL of the revelation mix are added to a final volume of 260 µL, including the following constituents at the respective final concentrations: 2 nM luciferase (Sigma), 30 µM D-luciferin (Sigma), 100 µM N-acetylcysteamine (Aldrich). Luminescence intensity is immediately measured on an Analyst-HT (Molecular Devices) and converted into inhibition percentages.
For IC50 determinations, the inhibitor is tested at 6 to 10 different concentrations, and the related inhibitions are fitted to a classical langmuir equilibrium model using XLFIT (IDBS).
`Cc1nc(CNc2nncc(-c3ccccc3Cl)n2)sc1C` [Example 9, 5-(2-Chlorophenyl)-N-[(4,5-dimethyl-1,3-thiazol-2-yl)methyl]-1,2,4-triazin-3-amine] registered an IC50 of 4300 nM.

`COc1ccc2sc(CNc3nncc(-c4c(Cl)cccc4Cl)n3)nc2c1` [Example 15, 5-(2,6-Dichlorophenyl)-N-[(5-methoxy-1,3-benzothiazol-2-yl)methyl]-1,2,4-triazin-3-amine] had an IC50 of 130 nM.

`OCCOc1ccc2sc(CNc3nncc(-c4c(Cl)cccc4Cl)n3)nc2c1` [Example 16, 2-{[2-({[5-(2,6-Dichlorophenyl)-1,2,4-triazin-3-yl]amino}methyl)-1,3-benzothiazol-5-y]oxy}ethanol] returned a 50% inhibitory concentration (IC50) of 18 nM.

With `O=C(O)COc1ccc2sc(CNc3nncc(-c4c(Cl)cccc4Cl)n3)nc2c1` [Example 17, {[2-({[5-(2,6-dichlorophenyl)-1,2,4-triazin-3-yl]amino}methyl)-1,3-benzothiazol-5-yl]oxy}acetic acid], half-maximal inhibition (IC50) was put at 19 nM.

`O=C(COc1ccc2sc(CNc3nncc(-c4c(Cl)cccc4Cl)n3)nc2c1)NCCO` [Example 18, 2-(2-{[5-(2,6-Dichloro-phenyl)-[1,2,4]triazin-3-ylamino]-methyl}-benzothiazol-5-yloxy)-N-(2-hydroxy-ethyl)-acetamide] yielded a half-maximal inhibitory concentration (IC50) of 47 nM.

With `CN(C)CCNC(=O)COc1ccc2sc(CNc3nncc(-c4c(Cl)cccc4Cl)n3)nc2c1` [Example 19, 2-(2-{[5-(2,6-Dichloro-phenyl)-[1,2,4]triazin-3-ylamino]-methyl}-benzothiazol-5-yloxy)-N-(2-dimethylamino-ethyl)-acetamide], inhibition was half-maximal at 165 nM (IC50).

The compound `CC(=O)COc1ccc2sc(CNc3nncc(-c4c(Cl)cccc4Cl)n3)nc2c1` [Example 20, 1-{[2-({[5-(2,6-Dichlorophenyl)-1,2,4-triazin-3-yl]amino}methyl)-1,3-benzothiazol-5-yl]oxy}acetone] registered an IC50 of 77 nM.

Compound `NC(=O)COc1ccc2sc(CNc3nncc(-c4c(Cl)cccc4Cl)n3)nc2c1` [Example 21, 2-{[2-({[5-(2,6-Dichlorophenyl)-1,2,4-triazin-3-yl]amino}methyl)-1,3-benzothiazol-5-yl]oxy}acetamide] showed an IC50 of 67 nM.

As for `COc1ccc2ccccc2c1-c1cnnc(NCc2nc3ccccc3s2)n1` [Example 22, Benzothiazol-2-ylmethyl-[5-(2-methoxy-naphthalen-1-yl)-[1,2,4]triazin-3-yl]-amine], half-maximal inhibition (IC50) was put at 130 nM.

`COc1ccc2sc(CNc3nncc(-c4c(OC)ccc5ccccc45)n3)nc2c1` [Example 29, N-[(5-Methoxy-1,3-benzothiazol-2-yl)methyl]-5(2-methoxy-1-naphthyl)-1,2,4-triazin-3-amine]: 51 nM corresponded to half-maximal inhibition (IC50).

In turn, `Oc1ccc2ccccc2c1-c1cnnc(NCc2nc3ccccc3s2)n1` [Example 32, 1-{3-[(Benzothiazol-2-ylmethyl)-amino]-[1,2,4]triazin-5-yl}-naphthalen-2-ol] came in with a half-maximal inhibitory concentration (IC50) of 63 nM.

In turn, `Oc1ccc2sc(CNc3nncc(-c4c(O)ccc5ccccc45)n3)nc2c1` [Example 33, 2-{[5-(2-Hydroxy-naphthalen-1-yl)-[1,2,4]triazin-3-ylamino]-methyl}-benzothiazol-5-ol] showed an IC50 of 20 nM.

For `COc1ccc2sc(CNc3nncc(-c4c(C)cccc4O)n3)nc2c1` [Example 35, 2-(3-{[(5-Methoxy-1,3-benzothiazol-2-yl)methyl]amino}-1,2,4-triazin-5-yl)-3-methylphenol], the IC50 was determined as 69 nM.

Turning to `Cc1cccc(O)c1-c1cnnc(NCc2nc3cc(NCc4nccs4)ccc3s2)n1` [Example 43, 3-Methyl-2-{3-[({5-[(1,3-thiazol-2-ylmethyl)amino]-1,3-benzothiazol-2-yl}methyl)amino]-1,2,4-triazin-5-yl}phenol], half-maximal inhibition (IC50) required 410 nM.

On to `COc1cccc(OC)c1-c1cnnc(NCc2nc3c(s2)CCCC3)n1` [Example 57, 5-(2,6-Dimethoxyphenyl)-N-(4,5,6,7-tetrahydro-1,3-benzothiazol-2-ylmethyl)-1,2,4-triazin-3-amine], for which the half-maximal inhibitory concentration (IC50) amounted to 1900 nM.

The compound `Oc1cccc2sc(CNc3nncc(-c4ccccc4C(F)(F)F)n3)nc12` [Example 64, 2-[({5-[2-(Trifluoromethyl)phenyl]-1,2,4-triazin-3-yl}amino)methyl]-1,3-benzothiazol-4-ol] displayed a concentration for half-maximal inhibition (IC50) of 5600 nM.

Regarding `COc1cccc(C)c1-c1cnnc(NCc2nc3cccnc3s2)n1` [Example 70, 5-(2-Methoxy-6-methylphenyl)-N-([1,3]thiazolo[5,4-b]pyridin-2-ylmethyl)-1,2,4-triazin-3-amine], the IC50 is 3100 nM.

`COc1ccc2sc(CNc3nncc(-c4c(C)cc(NC(=O)CN(C)C)cc4C)n3)nc2c1` [Example 75, 2-Dimethylamino-N-(4-{3-[(5-methoxy-benzothiazol-2-ylmethyl)-amino]-[1,2,4]triazin-5-yl}-3,5-dimethyl-phenyl)-acetamide] came in with an IC50 of 190 nM.

`COc1cccc(OC)c1-c1cnnc(N(CC(=O)O)Cc2nc3ccccc3s2)n1` [Example 90, {(1,3-Benzothiazol-2-ylmethyl)[5-(2,6-dimethoxyphenyl)-1,2,4-triazin-3-yl]amino}acetic acid] displayed a concentration for half-maximal inhibition (IC50) of 2000 nM.

For the compound `NCCSc1ccc2sc(CNc3nncc(-c4c(Cl)cccc4Cl)n3)nc2c1` [Example 94, N-({5-[(2-Aminoethyl)thio]-1,3-benzothiazol-2-yl}methyl)-5-(2,6-dichlorophenyl)-1,2,4-triazin-3-amine], the IC50 is 250 nM.

`COc1ccc2sc(CNc3nncc(-c4cc(-c5ccn[nH]5)ccc4Cl)n3)nc2c1` [Example 97, 5-[2-Chloro-5-(1H-pyrazol-3-yl)phenyl]-N-[(5-methoxy-1,3-benzothiazol-2-yl)methyl]-1,2,4-triazin-3-amine] came in with an IC50 of 53 nM.

`COc1ccc2sc(CNc3nncc(-c4cc(-c5cn[nH]c5)ccc4Cl)n3)nc2c1` [Example 98, 5-[2-Chloro-5-(1H-pyrazol-4-yl)phenyl]-N-[(5-methoxy-1,3-benzothiazol-2-yl)methyl]-1,2,4-triazin-3-amine]: the concentration for half-maximal inhibition (IC50) was 49 nM.

Regarding `COc1ccc2sc(CNc3nncc(-c4cc(-c5cccnc5)ccc4Cl)n3)nc2c1` [Example 99, 5-(2-Chloro-5-pyridin-3-ylphenyl)-N-[(5-methoxy-1,3-benzothiazol-2-yl)methyl]-1,2,4-triazin-3-amine], inhibition was half-maximal at 150 nM (IC50).

Compound `COc1ccc2sc(CNc3nncc(-c4cc(-c5cn(CCO)nn5)ccc4Cl)n3)nc2c1` [Example 100, 2-[4-(4-Chloro-3-{3-[(5-methoxy-benzothiazol-2-ylmethyl)-amino]-[1,2,4]triazin-5-yl}-phenyl)-[1,2,3]triazol-1-yl]-ethanol] registered a half-inhibitory concentration (IC50) of 255 nM.

Take `COc1ccc2sc(CNc3nncc(-c4ccc(N5CCNCC5)cc4Cl)n3)nc2c1` [Example 107, N-[(5-Methoxy-1,3-benzothiazol-2-yl)methyl]-5-(2-chloro-4-piperazin-1-ylphenyl)-1,2,4-triazin-3-amine]: the 50% inhibitory concentration (IC50) came out at 670 nM.

Consider `Cc1cc(NCCN(C)C)cc(C)c1-c1cnnc(NCc2nc3cc(OCCN)ccc3s2)n1` [Example 108, N-[4-(3-{[5-(2-Amino-ethoxy)-benzothiazol-2-ylmethyl]-amino}-[1,2,4]triazin-5-yl)-3,5-dimethyl-phenyl]-N',N'-dimethyl-ethane-1,2-diamine], for which the half-inhibitory concentration (IC50) stood at 1400 nM.

The test system of another experiment is E. coli K12 AcrAB- TolC-. Description: Sensitization to complement killing assay (MIC with/without serum). In kind it is cell-based. The note with it: Escherichia coli, read-out: MIC for E. coli K12 AcrAB- TolC-, FBS=0 (MH2 broth only); 18-22H at 35°C. How it is done:
The Gram-negative bacteria E. coli K12 AcrAB-/TolC- (K12 strain for which efflux pump components AcrA, AcrB and TolC have been deleted) is grown on Müller Hinton agar (MHA) overnight at 35°C. Five well isolated colonies from overnight agar growth are then added to 10 mL of cation adjusted Müller-Hinton Broth (MH2) and incubated at 35°C with constant shaking for two hours to reach the exponential phase. The suspension is then diluted to obtain an inoculum of 1.5E+04 CFU/mL. Viable counts are obtained by plating 10 to 1000-fold dilutions of the suspension on MHA. A solution of decomplemented Foetal Bovine Serum (dFBS) is prepared by heating normal FBS at 56°C for 30min. Compound dilutions are prepared in DMSO/water 20/80 in polypropylene plates. The following components are added on a polystyrene sterile culture plate in a final volume of 100µL: 5µL of compound in 20% DMSO, 30µL of FBS (30% final) or dFBS (30% final) or MH2 (0% FBS), 65µL of bacterial suspension at 1.5e4 CFU/mL (final inoculum of 1e4 CFU/mL). After 18-22H at 35°C incubation, the MIC of the compound in the presence of FBS 30%, dFBS 30% or FBS 0% is determined by visual inspection of bacterial pellets.
In the case of `O=C(COc1ccc2sc(CNc3nncc(-c4c(Cl)cccc4Cl)n3)nc2c1)NCCO` [Example 18, 2-(2-{[5-(2,6-Dichloro-phenyl)-[1,2,4]triazin-3-ylamino]-methyl}-benzothiazol-5-yloxy)-N-(2-hydroxy-ethyl)-acetamide], the minimal inhibitory concentration (MIC) is above 32 µg/mL.

The same experiment, now with this note: Escherichia coli, read-out: MIC for E. coli K12 AcrAB- TolC-, decomplemented FBS=30%; 18-22H at 35°C.
Take `O=C(COc1ccc2sc(CNc3nncc(-c4c(Cl)cccc4Cl)n3)nc2c1)NCCO` [Example 18, 2-(2-{[5-(2,6-Dichloro-phenyl)-[1,2,4]triazin-3-ylamino]-methyl}-benzothiazol-5-yloxy)-N-(2-hydroxy-ethyl)-acetamide]: the MIC is above 32 µg/mL.

The same experiment, now with this note: Escherichia coli, read-out: MIC for E. coli K12 AcrAB- TolC-, normal (complemented) FBS=30%; 18-22H at 35°C.
Turning to `O=C(COc1ccc2sc(CNc3nncc(-c4c(Cl)cccc4Cl)n3)nc2c1)NCCO` [Example 18, 2-(2-{[5-(2,6-Dichloro-phenyl)-[1,2,4]triazin-3-ylamino]-methyl}-benzothiazol-5-yloxy)-N-(2-hydroxy-ethyl)-acetamide], the MIC came to 4 µg/mL.
